In PubChem BioAssay AID2743 (NMMLSC, 2010):
Active and inactive are the calls of the source.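 Rule for the calls: active = fitted half-maximal concentration for change in GFP expression of 33 µM or less; inactive = the rest.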

Assay: potency of AGP1-GFP expression modulators in yeast, dose response, cell-based, flow cytometry, S. cerevisiae, MLPCN hits (AID 2743)
Details: S. cerevisiae AGP1-GFP strain, flow cytometry GFP, 3 h; at 33 µM (top of the series)

Row | Structure (SMILES) | GFP fluorescence (kMESF)
1 | COc1ccc(C(=O)NC(=S)NNC(=O)CCc2ccccc2)cc1 | 37.5 kMESF (inactive)
2 | Cc1ccc(N2C(=O)C(Cl)=C(Nc3c(C)n(C)n(-c4ccccc4)c3=O)C2=O)cc1 | 35 kMESF (inactive)
3 | CSC1=NS(=O)(=O)c2c(C)nn(C)c2S1 | 45.6 kMESF (inactive)
4 | O=C(/C=C/c1ccccc1)c1cc(Br)ccc(=O)c1O | -1.01 kMESF (inactive)
5 | O=C(c1ccccn1)c1conc1C(=O)c1ccc(Br)cc1 | 39.4 kMESF (inactive)
6 | Cn1ncc2c(O/N=C(\N)c3ccc(C(C)(C)C)cc3)ncnc21 | 24.7 kMESF (inactive)
7 | Cc1ccc(/C=C2\C(=O)NC(=S)N(c3ccccc3F)C2=O)s1 | 26.9 kMESF (inactive)
8 | Cc1ccc(-c2nn(C(C)(C)C)c3ncnc(N)c23)cc1 | 40.2 kMESF (inactive)
9 | O=C(Oc1ccnc2cc(Cl)ccc12)N1CCOCC1 | 35.7 kMESF (inactive)
10 | C=C1C(O)[C@@H]2O[C@]3(CC[C@H](/C=C/C(C)[C@@H]4CC(C)=CC5(O[C@H](C[C@@](C)(O)C(=O)O)CCC5O)O4)O3)CC[C@H]2O[C@@H]1C(O)CC(C)[C@H]1OC2(CCCCO2)CCC1C (stereo partly specified) | 35.8 kMESF (inactive)
11 | CC(C)(C)C(=O)NC(=S)NNC(=O)c1ccc(-c2ccccc2)cc1 | 44.1 kMESF (inactive)
12 | O=C(Nc1nc(-c2ccccn2)cs1)C1COc2ccccc2O1 (stereo unspecified) | 26.3 kMESF (inactive)
13 | COc1cc(C=C2C(=O)c3ccccc3C2=O)cc(OC)c1OC | 38.9 kMESF (inactive)
14 | O=C1C(Cl)=C(NCCc2ccccc2)C(=O)N1CCc1ccccc1 | 43.3 kMESF (inactive)
15 | COc1cc(/C=C2\CC/C(=C\c3cc(OC)c(O)c(OC)c3)C2=O)cc(OC)c1O | 34.6 kMESF (inactive)
16 | Cc1ccccc1OCC(=O)NNC(=S)NC(=O)c1ccco1 | 43.5 kMESF (inactive)
17 | COc1ccc(-c2cc3cc(C(=O)O)ccn3c2C(=O)c2ccccc2)cc1 | 43.2 kMESF (inactive)
18 | COc1cc(NC(=O)c2ccc(C)cc2)ccc1NC(=O)c1cc2ccccc2o1 | 43.8 kMESF (inactive)
19 | O=C(/C=C/c1ccnc2ccccc12)c1cccs1 | 45.9 kMESF (inactive)
20 | CCN(CC(=O)NC(C)(C)C)C(=O)COc1c(Cl)cc(Cl)c2ccc(C)nc12 | 35.5 kMESF (inactive)
21 | CC(C)C[C@]1(c2ccccc2)ON(c2ccccc2C(F)(F)F)C1=O | 34.6 kMESF (inactive)
22 | CCc1sc(C(=O)Nc2nc(-c3ccccn3)cs2)cc1C | 27.9 kMESF (inactive)
23 | C=CCN1C(=O)/C(=C/c2ccc(-c3ccc(F)cc3)o2)SC1=S | 35.3 kMESF (inactive)

Row | Structure (SMILES) | GFP fluorescence (kMESF)
24 | O=c1oc2cc(Oc3c([N+](=O)[O-])cc(C(F)(F)F)cc3[N+](=O)[O-])ccc2c2c1CCCC2 | 40 kMESF (inactive)
25 | COc1ccc(N2C(=O)CC(Sc3ncn[nH]3)C2=O)c(OC)c1 (stereo unspecified) | 36.2 kMESF (inactive)
26 | CC(C)(C)C1C/C(=C/c2ccccn2)C(=O)/C(=C/c2ccccn2)C1 (stereo unspecified) | 32.6 kMESF (inactive)
27 | COc1cc(/C=C/[N+](=O)[O-])ccc1O | 32.3 kMESF (inactive)
28 | Cc1ccc2c(c1)c(/C=C/c1cc[n+](C)cc1)c(C)n2C | 48.2 kMESF (inactive)
29 | CC1(c2ccccc2)ON(c2ccccc2C(F)(F)F)C1=O (stereo unspecified) | 29.4 kMESF (inactive)
30 | O=C1ON=C(c2ccccc2)/C1=C/c1ccco1 | 41.7 kMESF (inactive)
31 | COc1ccc2c(c1)S/C(=C\C(=O)c1ccncc1)N2C | 17.8 kMESF (inactive)
32 | Cc1ccc(NC(=O)c2cc(N3C(=O)C=CC3=O)ccc2N2CCOCC2)cc1Cl | 36.2 kMESF (inactive)
33 | O=C(Nc1nnc(-c2ccc(Cl)cc2)o1)c1ccccc1Br | 28.4 kMESF (inactive)
34 | O=c1c2sc(-c3ccccc3)cc2nc2n1CCC2 | 25 kMESF (inactive)
35 | CC[C@@]1(c2ccccc2OC)ON(c2ccccc2C(F)(F)F)C1=O | 33.2 kMESF (inactive)
36 | CC(Oc1cccc(Cl)c1)C(=O)Nc1nc(-c2ccccn2)cs1 (stereo unspecified) | 50.7 kMESF (inactive)
37 | O=C1NC(=O)N(c2ccccc2)C(=O)/C1=C/c1ccc(Sc2ccccc2)o1 | 35.9 kMESF (inactive)
38 | O=C(O)C1Sc2[nH]c(=O)sc2C2c3cc(Br)ccc3OC(=O)C12 (stereo unspecified) | 38.7 kMESF (inactive)
39 | C=CCOc1ccc(C(=O)/C=C2/C(=O)Nc3ccccc32)cc1 | 46.5 kMESF (inactive)
40 | Cc1ccc(NC(=O)ON=C2CCCC2)cc1 | 26.4 kMESF (inactive)
41 | Cc1ccc(C(=O)Oc2oc(-c3ccccc3)nc2C=Nc2ccc(N(C)C)cc2)cc1 | 39.3 kMESF (inactive)
42 | COc1ccc(N/N=C(\C#N)C(N)=O)cc1 | 52.4 kMESF (inactive)
43 | O=C(OCC(=O)N1CCN(C(=O)c2ccco2)CC1)c1cc(-c2ccc(Cl)c(Cl)c2Cl)nc2ccccc12 | 50.9 kMESF (inactive)
44 | NC(=O)COc1ccc(C(=O)/C=C2/C(=O)Nc3ccccc32)cc1 | 46.2 kMESF (inactive)
45 | CCc1ccc(OCC(=O)NNC(=S)NC(=O)C2CC2)c(Br)c1 | 45.2 kMESF (inactive)
46 | O=C1C=CC(=O)N1N(c1ccccc1)c1ccccc1 | 37 kMESF (inactive)

Row | Structure (SMILES) | GFP fluorescence (kMESF)
47 | O=C(c1ccccc1)c1ccccc1N1C(=O)C=CC1=O | 38 kMESF (inactive)
48 | O=[N+]([O-])c1c(Nc2ccccn2)cc(Cl)c2nonc12 | 26.8 kMESF (inactive)
49 | O=C1Nc2ccccc2/C1=C\C(=O)c1ccccc1 | 38.3 kMESF (inactive)
50 | O=c1cc(CSc2ccc(Cl)cc2)nc(-c2ccccn2)[nH]1 | 25.7 kMESF (inactive)
51 | COC(=O)c1cc(N2C(=O)C3C(C2=O)C2(C)C=CC3(C)O2)ccc1Cl (stereo unspecified) | 47.1 kMESF (inactive)
52 | COc1ccc([N+](=O)[O-])c(S(=O)(=O)c2ccccc2)n1 | 47.5 kMESF (inactive)
53 | Oc1c(C(Nc2cccc(C(F)(F)F)c2)c2ccncc2)ccc2cccnc12 (stereo unspecified) | 30.3 kMESF (inactive)
54 | O=C(/C=C/c1ccccc1[N+](=O)[O-])c1ccccc1Br | 50.7 kMESF (inactive)
55 | O=C(NC(=S)NNC(=O)c1cnccn1)c1ccc(Cl)cc1 | 37.6 kMESF (inactive)
56 | CCN(CC)c1ccc2cc(-c3nc4ccccc4[nH]3)c(=O)oc2c1 | 48.4 kMESF (inactive)
57 | O=C1N(c2ccccc2C(F)(F)F)O[C@]1(c1ccccc1)C1CCCCC1 | 34.3 kMESF (inactive)
58 | Cc1ccc(-c2nc(N)c3c(-c4ccc(C)cc4)nn(C(C)(C)C)c3n2)cc1 | 38.4 kMESF (inactive)
59 | COc1ccc(C(=O)/C=C2/C(=O)Nc3ccccc32)c(OC)c1 | 43.2 kMESF (inactive)
60 | CCCCS(=O)(=O)/C=C\C=C/S(=O)(=O)CCCC | 26.3 kMESF (inactive)
61 | O=C1C=CC(=O)N1c1cccc(-c2ccccc2)c1 | 44.7 kMESF (inactive)
62 | N/C(Cc1ccc(Cl)c(Cl)c1)=N\OC(=O)c1cccs1 | 29.8 kMESF (inactive)
63 | CCCOc1ccc(C(=O)NNC(=S)NC(=O)c2ccco2)cc1 | 50.3 kMESF (inactive)
64 | O=C(COc1ccc(F)cc1Cl)Nc1nc(-c2ccccn2)cs1 | 33.9 kMESF (inactive)
65 | Cc1ccsc1/C=C1\C(=O)NC(=S)N(C)C1=O | 20.6 kMESF (inactive)
66 | O=[N+]([O-])c1ccc(S(=O)(=O)c2cccc(C(F)(F)F)c2)nc1 | 37.7 kMESF (inactive)
67 | O=C(Sc1cccc2cccnc12)c1ccccc1Br | 37.3 kMESF (inactive)
68 | O=C1CC(c2ccccc2)=NN1c1nc(-c2ccccc2)cs1 | 26 kMESF (inactive)
69 | Oc1ccc(COCc2ccccc2)c2cccnc12 | 36.3 kMESF (inactive)

Row | Structure (SMILES) | GFP fluorescence (kMESF)
70 | COc1ccc2c(/C=C/c3cc[n+](C)cc3)c[nH]c2c1 | 44.4 kMESF (inactive)
71 | O=C(c1ccc(Cl)cc1)N1CCN(c2cccc3[nH]ccc23)CC1 | 46.1 kMESF (inactive)
72 | CC(=O)Nc1ncnc2c1c(-c1ccc(Cl)cc1)nn2C(C)(C)C | 30.3 kMESF (inactive)
73 | O=C1C=CC(=O)N1c1ccc(Sc2ccc([N+](=O)[O-])cc2)cc1 | 38.7 kMESF (inactive)
74 | COc1ccc(C(=O)/C=C2/C(=O)Nc3ccccc32)cc1 | 44.8 kMESF (inactive)
75 | O=c1c2cnn(-c3ccccc3)c2ncn1Cc1ccco1 | 29.6 kMESF (inactive)
76 | Cc1c(N2C(=O)/C(=C\c3ccccc3O)SC2=S)c(=O)n(-c2ccccc2)n1C | 44.8 kMESF (inactive)
77 | O=C(Nc1ccccc1)c1nnsc1S(=O)(=O)c1ccc(Cl)cc1 | 38.4 kMESF (inactive)
78 | COc1ccccc1C(=O)NNC(=S)NC(=O)c1cccs1 | 48 kMESF (inactive)
79 | CC(=O)n1cc(C(C[N+](=O)[O-])SCCN)c2ccccc21 (stereo unspecified) | 28.8 kMESF (inactive)
80 | Cc1ccc(O)c(N=Nc2nccs2)c1 | 30.4 kMESF (inactive)
81 | CS(=O)(=O)N1N=C(c2ccccc2)CC1c1ccc2c(c1)OCO2 (stereo unspecified) | 126 kMESF (inactive)
82 | COc1cc(CNC(=O)CCCCCCC(C)C)ccc1O | 46.8 kMESF (inactive)
83 | CCCCc1ccc(NC(=O)CC(C)=O)cc1 | 37.2 kMESF (inactive)
84 | Cc1ccccc1[C@@]1(C)ON(c2ccccc2C(F)(F)F)C1=O | 29.8 kMESF (inactive)
85 | O=C1C=CC(=O)N1c1ccc(O)cc1 | 48.3 kMESF (inactive)
86 | O=C(Oc1oc(-c2ccco2)nc1C=Nc1ccc(Cl)cc1)c1ccco1 | 42 kMESF (inactive)
87 | CCCc1nnc(NC(=O)c2c(O)c3cccc4c3n(c2=O)CCC4)s1 | 2.53 kMESF (inactive)
88 | COCCN1C(=O)/C(=C/c2ccc(N3CCCC3)cc2C)SC1=S | 44.5 kMESF (inactive)
89 | Oc1ccc2ccccc2c1N=Nc1nccs1 | 43.4 kMESF (inactive)
90 | CC(=O)NN1C(=O)/C(=C/c2ccc(Br)o2)SC1=S | 40.5 kMESF (inactive)
91 | COc1ccc(NC2=C(Cl)C(=O)N(CCc3ccccc3)C2=O)c(OC)c1 | 35.3 kMESF (inactive)
